Assays:
[1] = test system: NIH3T3 cells; experiment: TaCT signal by flow cytometry, NIH3T3 cells on TaCT substrates; format: cell-based
Method: FIG. 1 provides a scheme of tension-activated cell tagging (TaCT). TaCT is based on 3′ and 5′ end mechanical pulling of a DNA duplex that leads to dehybridization. The stability of a dsDNA 24 mer was evaluated as a function of applied force generated using oxDNA simulation with a loading rate of 2.81×10^3 nm/s. The exponential moving average (EMA) indicates a 41 pN dehybridization transition. Flow cytometry histograms of NIH3T3 cells cultured on TaCT substrates as well as control surfaces with (−)cholesterol, (−)RGD, and (+)LatB were obtained.
NIH3T3 cells were seeded onto the TaCT substrates, allowed to spread, and collected by gentle scraping. The TaCT signal was then measured by flow cytometry. Probes lacking RGD, probes lacking cholesterol, as well as full TaCT probes cells treated with Lat B were used as negative controls. […] Background tagging of cells due to cell spreading and proximity to the surface leads to negligible TaCT signal.

[2] = test system: mouse embryonic fibroblasts; experiment: fluorescence microscopy of force-induced DNA duplex peeling under mouse embryonic fibroblasts; format: cell-based
Method: FIG. 4A illustrates Lat B inhibition of cells. […] RICM and Cy3B microscopy images were obtained from MEF cells incubated on peeling probe substrate after early Lat B treatment. Cells were treated with 20 μM Lat B after 15 min of plating on the substrate and imaged after 45 min of incubation.
FIG. 4B illustrates that when integrin force signals are already generated on peeling probe substrate, if the force transmission is terminated by late Lat B treatment, with additional BHQ2 peeling strand, the peeling probe can rehybridize to the duplex form. RICM and raw Cy3B microscopy images were obtained of MEF cells treated with 20 μM Lat B 50 min after seeding. The tension signal remained after 10 min of Lat B treatment and diminished after the addition of excess BHQ2 peeling strand.
The Cy3B signal was primarily localized to the cell edge, consistent with the distribution of focal adhesions (FAs) and accumulated as a function of time. The growth of Cy3B signal corresponded to the loss of Atto647N signal and confirmed the force-induced peeling mechanism. This mechanism can generate high quality maps of integrins forces independent of cholesterol conjugation to the probe. […] The observed tension signal colocalized with markers of FAs such as vinculin and phosphorylated focal adhesion kinase (FAK pY397), as well as actin stress fibers, confirming that forces were primarily transmitted by integrins within FAs. The peeling signal mirrors that of the turn-on tension gauge tether (TGT) probes but avoids termination of mechanotransduction which represents an advantage as a molecular force sensor. […] Maps accumulated mechanical events over time.

[3] = test system: mouse platelets; experiment: flow cytometry of DNA strand uptake in solution (cholesterol-DNA cell tagging); format: cell-based; settings: 50 nM, 30 min
Method: FIG. 5A illustrates a scheme for making flow cytometry measurements of the DNA strands uptake in solution. Mouse platelets were incubated with 50 nM of cholesterol peeling strand, TaCT duplex, load-bearing strand, TaCT duplex lacking RGD, and load-bearing strand lacking RGD in Tyrode's buffer for 30 min and spun down three times to wash away the excess oligos. The association was measured in both Atto647N and Cy3B channels by a flow cytometer.
(§1) After confirming that DNA peeling consistently maps molecular traction forces, cholesterol-DNA cell tagging for TaCT was investigated. Cholesterol-DNA is contemplated to partition into the plasma membrane of cells. […] The stability of TaCT tags was examined by incubating cholesterol-single stranded DNA with cells, washing, and measuring the loss of DNA as a function of time. Approximately 20-30% of the cholesterol-tethered DNA dissociated at 90 min. Accordingly, the cells were incubated on the surface for 1 h, which allowed for focal adhesion formation and TaCT method to proceed while limiting cholesterol dissociation.

[4] = test system: MEF cells; experiment: concentration dependent incorporation of cholesterol peeling strand; format: cell-based, mouse; settings: 0, 1, 10, 100 nM, 1 h
Method: FIG. 5C provides a scheme showing flow cytometry measurements of the concentration dependent incorporation of cholesterol peeling strand. MEF cells were incubated with 0, 1, 10, and 100 nM of cholesterol peeling strand for 1 h. The excess cholesterol peeling strand was washed away by spinning down in PBS three times, and the fluorescence intensity of cells was measured by a flow cytometer.
Linear relationship between cholesterol strand concentration and cell association was found, R2=0.977.
as §1

[5] = test system: NIH3T3 cells; experiment: cholesterol peeling strand dissociation from the cell; format: cell-based; settings: at 90 min after washing
Method: FIG. 5E provides a scheme showing the measurement of cholesterol peeling strand dissociation from the cell. NIH3T3 cells were incubated with 100 nM cholesterol peeling strand for 30 min and rinsed with PBS 3 times. Cells were divided into 6 aliquots and the remaining cholesterol strand in cells was measured every 30 min for 150 min by flow cytometry.
The normalized MFI from 2 replicates was plotted to show the dissociation of cholesterol strand over time in NIH3T3 cells.
as §1

[6] = test system: MEF cells (WT and vin−); experiment: TaCT on co-cultured WT and vinculin null MEF cells, flow cytometry; format: cell-based, mouse
Method: Vinculin is an adaptor protein that localizes to FAs linking the cytoskeleton to adhesion receptors and aids in FA maturation. TaCT was performed on these two cell types separately. The vin− cells were stained with cell tracker dye, CMFDA, before plating onto TaCT substrates. To ensure that the TaCT signal is not due to differential uptake, cholesterol uptake of WT and vin− cells was measured by flow cytometry in parallel with each TaCT assay. WT cells had larger spreading area and produced more tension signal compared to vin− cells in the Cy3B channel. […] Experiments were performed to determine whether this differential tension signal could be detected when the WT and vin− were co-cultured.

[7] = FRET efficiency of surface-immobilized TaCT probes; format: physicochemical
Source text: In one example, TaCT probe is comprised of a load-bearing strand and a 24mer peeling strand. […] The loading-bearing strand also incorporated an internal Cy3B dye. The complementary peeling strand was designed to release once force (F) is greater than F peel. The peeling strand termini were labeled with Atto647N and cholesterol. The TaCT probes were annealed and immobilized on streptavidin-coated glass slides. At rest, the probe is in the dsDNA form where Cy3B and Atto647N form a FRET pair. When F is greater than F peel, the Atto647N strand peels and dissociates, while the Cy3B dye on the load bearing strand is de-quenched. […] The probe density was measured at 5200 molecules/μm^2 using a quantitative fluorescence calibration, which allows one to convert the Cy3B fluorescence signal to a % peel.

[8] = test system: mouse platelets; experiment: TaCT signal by flow cytometry, mouse platelets on TaCT surface; format: cell-based; settings: mouse platelets seeded 30 min
Method: Experiments were performed to determine whether this strategy works in primary cells. […] When mouse platelets were seeded onto the TaCT surface for 30 min, a loss of Atto647N signal was noted that was coupled with an increase in Cy3B. This confirmed that platelet integrin force transmission was sufficient to mediate DNA peeling with F greater than 41 pN.

[9] = test system: MEF cells; experiment: Y27632 dose-dependent response of TaCT / tension signal in MEF cells; format: cell-based, mouse; settings: Y27632 pre-treatment
Source text: To showcase that TaCT is an effective method to report cell receptor forces, a Rho-associated protein kinase (ROCK) inhibitor, Y27632, was used to disrupt the force transmission through cytoskeleton and measure the dose-dependent response in MEF cells. Y27632 inhibits ROCK kinases by competing with ATP binding, and further result in decreased myosin activity, destabilization of actin filament and abolished stress formation.

[10] = target: Rho-associated protein kinase (ROCK); settings: cited from earlier work

## C/C1=C/C(=O)O[C@@H]2C[C@@H](CC[C@H](C)/C=C\CC1)O[C@@](O)([C@@H]1CSC(=O)N1)C2 [Lat B, Latrunculin B, reference compound]
[1]; NIH3T3 cells on full TaCT probes, cells treated with Lat B
  force positive population: 3.5%
[2]; Lat B 50 min after seeding (20 μM)
  tension signal changes: did not show tension signal changes
[2]; cells treated with Lat B (early, 20 μM)
  peeling signal: significantly reduced peeling signal

## Cholesterol-single stranded DNA conjugates: 24 mer peeling strand (SEQ ID NO: 2) labeled with Atto647N and cholesterol (DNA AGTTCTAAGACTTCAGAGCTCACT; DNA, backbone and methylation of C not given here; Atto647N and cholesterol on the termini)
[3]
  effectiveness at tagging cells compared to cholesterol-double stranded DNA conjugates: approximately 50 fold
[4]
  membrane-association versus soluble conjugate concentration: linearly proportional
[5]
  cholesterol-tethered DNA dissociated: 20-30%

## TaCT probe: DNA duplex: RGD/Cy3B/biotin load-bearing strand (SEQ ID NO: 1) and 24mer Atto647N, cholesterol peeling strand (SEQ ID NO: 2) (DNA 1 TTTTTTTTTTAGTGAGCTCTGAAGTCTTAGAACT; DNA 2 AGTTCTAAGACTTCAGAGCTCACT; DNA, backbone and methylation of C not given here; RGD and biotin at the two termini, internal Cy3B, peeling strand Atto647N and cholesterol)
[6]; WT MEF cells in mixed population (co-culture)
  force positive population: 24.4%
[6]; vin− MEF cells in mixed population (co-culture)
  force positive population: 5.2%
[7]
  Cy3B signal enhancement upon peeling: greater than 10 fold
[7]; Cy3B / Atto647N pair in dsDNA form
  FRET efficiency: 93.8%
[1]; NIH3T3 cells incubated on TaCT
  Atto647N geometric mean fluorescence intensity (gMFI) increase compared to controls: greater than 2 fold
[1]; NIH3T3 cells incubated on TaCT compared to controls
  Cy3B gMFI: did not change
[1]; NIH3T3 cells on substrate, 1 h, flow cytometry
  force positive population: 27.6%
[8]
  force positive population: 13.3%
[2]; equivalent of % peel and probe density
  mechanical events with F greater than 41 pN: approximately 47 mechanical events/μm^2
[2]; quantitative microscopy analysis
  probes peeled under each cell: 0.9%

## C[C@@H](N)[C@H]1CC[C@H](C(=O)Nc2ccncc2)CC1 [Y27632]
[9]; Mus musculus, flow cytometry, ROCK inhibitor
  IC50: 773 nM
[9]; microscopy
  Cy3B tension signal: decreased Cy3B tension signal
[10]
  literature reported IC50 values: hundreds of nM to low μM

Source: patent publication US20260098863A1, “Tension-Activated Cell Tagging (TaCT)” (Emory University, priority 2022, published 2026)
